# Experiment: recombinant barcode read abundance after kanamycin selection (control-corrected) (log10(CPM+1)); higher = more efficient recombination; sequences stand for … in AGTGCAGAGAAAATCGGCCAGTTTTCTCTGCCTGCAGTCCGCATGCCGT…AGATTTATGCAGCGGACTGCCTTTCTCCCAAAGTGATAAACCGGACAGTATCATGGACCGGTTTTCCCGGTAATCCGTATTTGCAAGGTTGGTTTCACT; site = the 11-nt target
# In short: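 For this pooled screen, each oligo contained a promoter, a target, a barcode and the J23119-driven first 104 bases of the bridge RNA. Gibson cloning placed it into a vector supplying the remaining 73 bp and a T7-inducible recombinase, and the pool was co-electroporated into E. coli with a donor plasmid. Recombination efficiency is derived from barcode counts per million at recombinant junctions after averaging and control correction, and is expressed on a log scale as log10(CPM+1), with selection on chloramphenicol/ampicillin/kanamycin plus 0.1 mM IPTG against a chloramphenicol/ampicillin LB agar control.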
# 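Note: IS621 recombinase and bridge RNA in Escherichia coli cells.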
row,Sequence,recombinant barcode read abundance (log10)
1,GTCCACCCTTGGGTTCTAACCTGTTGCAG (site GTCCACCCTCT),1.86
2,GTCCACCCTTGGGTTCTAACCTGTTGCAG (site GTCCACTCTGT),0.01
3,GTCCACTCTTGGGTTCTAACCTGTTGCTT (site GTCCACTCTAA),1.46
4,GTCCACTCTTGGGTTCTAACCTGTTGCTT (site GTCCAGTCTAC),0
5,GTCCAGGCTTGGGTTCTAACCTGTTGCGG (site GACCAGTCTCC),0.421
6,GTCCAGGCTTGGGTTCTAACCTGTTGCGG (site GTCCAGGCTCC),0.924
7,GTCCCTCCTTGGGTTCTAACCTGTTGCCT (site GTCCCTCCTAA),0.187
8,GTCCCTCCTTGGGTTCTAACCTGTTGCCT (site GTCCCTCCTAC),0.116
9,GTCCCTCCTTGGGTTCTAACCTGTTGCCT (site GTCCCTCCTAG),0.709
10,GTCCCTCCTTGGGTTCTAACCTGTTGCCT (site GTCCCTCCTAT),0.586
11,GTCCGAACTTGGGTTCTAACCTGTTGCCA (site GTCCGAACTTG),0.428
12,GTCCGAACTTGGGTTCTAACCTGTTGCCA (site GTCGGAGCTTG),0.0199
13,GTCCGTCCTTGGGTTCTAACCTGTTGCCT (site GTCCGTCCTAA),0.119
14,GTCCGTCCTTGGGTTCTAACCTGTTGCCT (site GTCCGTCCTAC),0.0319
15,GTCCGTCCTTGGGTTCTAACCTGTTGCCT (site GTCCGTCCTAG),0.833
16,GTCCGTCCTTGGGTTCTAACCTGTTGCCT (site GTCCGTCCTAT),0.0563
17,GTCCGTCCTTGGGTTCTAACCTGTTGCGT (site GTCCGTCCTAA),0.139
18,GTCCGTCCTTGGGTTCTAACCTGTTGCGT (site GTCCGTCCTAC),1.69
19,GTCCGTCCTTGGGTTCTAACCTGTTGCGT (site GTCCGTCCTAG),0.09
20,GTCCGTCCTTGGGTTCTAACCTGTTGCGT (site GTCCGTCCTAT),0.504
21,GTCCTATCTTGGGTTCTAACCTGTTGCTA (site AGGTCTACTGT),0.146
22,GTCCTATCTTGGGTTCTAACCTGTTGCTA (site GTCCTATCTTA),0.656

row,Sequence,recombinant barcode read abundance (log10)
1,GTCCTGTCTTGGGTTCTAACCTGTTGCCG (site GTCCTGTCTCG),1.16
2,GTCCTGTCTTGGGTTCTAACCTGTTGCCG (site GTCGTGTCTCG),0.397
3,GTCGACCCTTGGGTTCTAACCTGTTGCCT (site GTCGACCCTAG),1.98
4,GTCGACCCTTGGGTTCTAACCTGTTGCCT (site GTCGACGCTAG),0.136
5,GTCGCGACTTGGGTTCTAACCTGTTGCCT (site GTCGCGACTAG),0.0792
6,GTCGCGACTTGGGTTCTAACCTGTTGCCT (site GTCGCGCCTAG),0.353
7,GTCGCGACTTGGGTTCTAACCTGTTGCCT (site GTCGCGGCTAG),0.145
8,GTCGCGACTTGGGTTCTAACCTGTTGCCT (site GTCGCGTCTAG),0.215
9,GTCGGAGCTTGGGTTCTAACCTGTTGCCA (site GTCCGAACTTG),0.0692
10,GTCGGAGCTTGGGTTCTAACCTGTTGCCA (site GTCGGAGCTTG),0.959
11,GTCGGGCCTTGGGTTCTAACCTGTTGCCT (site ATCGGGCCTAG),0.0962
12,GTCGGGCCTTGGGTTCTAACCTGTTGCCT (site CTCGGGCCTAG),0.0668
13,GTCGGGCCTTGGGTTCTAACCTGTTGCCT (site GTCGGGCCTAG),0.686
14,GTCGGGCCTTGGGTTCTAACCTGTTGCCT (site TTCGGGCCTAG),0.126
15,GTCGTGTCTTGGGTTCTAACCTGTTGCCG (site GTCCTGTCTCG),0.0845
16,GTCGTGTCTTGGGTTCTAACCTGTTGCCG (site GTCGTGTCTCG),1.28
17,GTCGTTGCTTGGGTTCTAACCTGTTGCCT (site ATCGTTGCTAG),0.522
18,GTCGTTGCTTGGGTTCTAACCTGTTGCCT (site CTCGTTGCTAG),0.0407
19,GTCGTTGCTTGGGTTCTAACCTGTTGCCT (site GTCGTTGCTAG),1.07
20,GTCGTTGCTTGGGTTCTAACCTGTTGCCT (site TTCGTTGCTAG),1.19
21,GTCTAATCTTGGGTTCTAACCTGTTGCCT (site GTCTAATCTAG),0.719
22,GTCTAATCTTGGGTTCTAACCTGTTGCCT (site GTCTCATCTAG),0.271

row,Sequence,recombinant barcode read abundance (log10)
1,GTCTAATCTTGGGTTCTAACCTGTTGCCT (site GTCTGATCTAG),0.174
2,GTCTAATCTTGGGTTCTAACCTGTTGCCT (site GTCTTATCTAG),0.0315
3,GTCTACGCTTGGGTTCTAACCTGTTGCCA (site GTCTAAGCTCG),0.0189
4,GTCTACGCTTGGGTTCTAACCTGTTGCCA (site GTCTACGCTTG),0.253
5,GTCTCACCTTGGGTTCTAACCTGTTGCGG (site GTATCTCCTCC),0.094
6,GTCTCACCTTGGGTTCTAACCTGTTGCGG (site GTCTCACCTCC),0.91
7,GTCTGTTCTTGGGTTCTAACCTGTTGCCT (site GACTGTTCTAG),0.17
8,GTCTGTTCTTGGGTTCTAACCTGTTGCCT (site GCCTGTTCTAG),0.071
9,GTCTGTTCTTGGGTTCTAACCTGTTGCCT (site GGCTGTTCTAG),0.16
10,GTCTGTTCTTGGGTTCTAACCTGTTGCCT (site GTCTGTTCTAG),0.852
11,GTCTTCTCTTGGGTTCTAACCTGTTGCTT (site GTCTACTCTCA),0.0691
12,GTCTTCTCTTGGGTTCTAACCTGTTGCTT (site GTCTTCTCTAA),0.487
13,GTGAAGCCTTGGGTTCTAACCTGTTGCCA (site GTGAAGCCTTG),0.758
14,GTGAAGCCTTGGGTTCTAACCTGTTGCCA (site GTGTATCCTTG),0.165
15,GTGAGAGCTTGGGTTCTAACCTGTTGCGG (site GTGAGAGCTCC),1.43
16,GTGAGAGCTTGGGTTCTAACCTGTTGCGG (site GTGAGCACTCC),0.0453
17,GTGAGCACTTGGGTTCTAACCTGTTGCTA (site AATTAGCCTAG),0.0422
18,GTGAGCACTTGGGTTCTAACCTGTTGCTA (site GTGAGCACTTA),0.337
19,GTGAGGACTTGGGTTCTAACCTGTTGCCT (site ATGAGGACTAG),0.739
20,GTGAGGACTTGGGTTCTAACCTGTTGCCT (site CTGAGGACTAG),0.133
21,GTGAGGACTTGGGTTCTAACCTGTTGCCT (site GTGAGGACTAG),1.49
22,GTGAGGACTTGGGTTCTAACCTGTTGCCT (site TTGAGGACTAG),0.316

row,Sequence,recombinant barcode read abundance (log10)
1,GTGAGGACTTGGGTTCTAACCTGTTGCGT (site GTGAGGACTAC),3.11
2,GTGAGGACTTGGGTTCTAACCTGTTGCGT (site GTGCGGACTAC),0.236
3,GTGAGGACTTGGGTTCTAACCTGTTGCTG (site GTGAGGACTCA),2.68
4,GTGAGGACTTGGGTTCTAACCTGTTGCTG (site GTGTGGACTCT),0.0356
5,GTGATAGCTTGGGTTCTAACCTGTTGCGG (site GATATAGCTCC),0.16
6,GTGATAGCTTGGGTTCTAACCTGTTGCGG (site GTGATAGCTCC),1.12
7,GTGATCCCTTGGGTTCTAACCTGTTGCCT (site GAGATCCCTAG),0.585
8,GTGATCCCTTGGGTTCTAACCTGTTGCCT (site GTGATCCCTAG),1.18
9,GTGCACCCTTGGGTTCTAACCTGTTGCTT (site GGGCATCCTAA),0.115
10,GTGCACCCTTGGGTTCTAACCTGTTGCTT (site GTGCACCCTAA),1.57
11,GTGCCTGCTTGGGTTCTAACCTGTTGCCT (site GCGCATGCTAG),0.039
12,GTGCCTGCTTGGGTTCTAACCTGTTGCCT (site GTGCCTGCTAG),1.05
13,GTGCGCCCTTGGGTTCTAACCTGTTGCGG (site GTGCGCCCTAC),0.369
14,GTGCGCCCTTGGGTTCTAACCTGTTGCGG (site GTGCGCCCTCC),1.28
15,GTGCGCTCTTGGGTTCTAACCTGTTGCGC (site CCAGCTGCTAG),0.0659
16,GTGCGCTCTTGGGTTCTAACCTGTTGCGC (site GTGCGCTCTGC),0.145
17,GTGGAAGCTTGGGTTCTAACCTGTTGCCT (site GAGGAAGCTAG),0.316
18,GTGGAAGCTTGGGTTCTAACCTGTTGCCT (site GCGGAAGCTAG),0.367
19,GTGGAAGCTTGGGTTCTAACCTGTTGCCT (site GGGGAAGCTAG),0.262
20,GTGGAAGCTTGGGTTCTAACCTGTTGCCT (site GTGGAAGCTAG),1.1

# Reference: the supplement of paper PMC11208160
